Measurements as given in patent US20080009418A1, “Selective Inhibitors” (Alchemia LTD., priority 2004, published 2008).

Columns and labels:
Human δ-opioid (DOP) = biological target: T1, Human δ-opioid (DOP) (Homo sapiens, UniProt P41143); assay: Radioligand binding, human δ-opioid (DOP) membranes, FlashPlate, [3H]-Bremazocine; conditions: compound at 10 μM; [3H]-Bremazocine
T1 construct: purchased Perkin Elmer Biosignal
Procedure, shortened: (§1)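 Cloned human receptor membranes were coated onto FlashPlate wells and incubated with radioligand and compound (added from a 0.5 mM DMSO daughter plate) for 1 hour at room temperature in the dark. Scintillation counting gave percent inhibition, with DMSO defining total and reference ligand defining non-specific binding.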

Human κ-Opioid (KOP) = biological target: T2, Human κ-Opioid (KOP) (Homo sapiens, UniProt P41145); assay: Radioligand binding, human κ-opioid (KOP) membranes, filtration, [3H]-Diprenorphine; conditions: compound at 10 μM; [3H]-Diprenorphine
T2 construct: purchased Perkin Elmer Biosignal
Procedure, shortened: (§2)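 Filtration binding on cloned human receptor membranes (1 Unit/well), [125I]-Substance P for NK1 and [3H]-Diprenorphine for KOP, 1 h at room temperature. Filters PEI-presoaked, washed with cold 50 mM Tris-HCl pH 7.4, counted by scintillation; percent inhibition calculated, reference ligand defining non-specific binding.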

Human Melanocortin (MC3) = biological target: T3, Human Melanocortin (MC3) (Homo sapiens, UniProt P41968); assay: Radioligand binding, human melanocortin MC3 membranes, FlashPlate, [125I]-NDP-αMSH; conditions: compound at 10 μM; [125I]-NDP-αMSH
T3 construct: purchased Perkin Elmer Biosignal
Procedure, shortened: as §1

Human Melanocortin (MC4) = biological target: T4, Human Melanocortin (MC4) (Homo sapiens, UniProt P32245); assay: Radioligand binding, human melanocortin MC4 membranes, FlashPlate, [125I]-NDP-αMSH; conditions: compound at 10 μM; [125I]-NDP-αMSH
T4 construct: purchased Perkin Elmer Biosignal
Procedure, shortened: as §1

Human melanocortin (MC5) = biological target: T5, Human melanocortin (MC5) (Homo sapiens, UniProt P33032); assay: Radioligand binding, human melanocortin MC5 membranes, FlashPlate, [125I]-NDP-αMSH; conditions: compound at 10 μM; [125I]-NDP-αMSH
T5 construct: purchased Perkin Elmer Biosignal
Procedure, shortened: as §1

[1] = biological target: T6, Human melanin-concentrating hormone (MCH1) (Homo sapiens, UniProt Q99705); assay: Radioligand binding, human melanin-concentrating hormone MCH1 membranes, FlashPlate, [125I]-S36057; conditions: compound at 10 μM; [125I]-S36057
T6 construct: purchased Perkin Elmer Biosignal
Procedure, shortened: as §1

Human μ-opioid (MOP) = biological target: T7, Human μ-opioid (MOP) (Homo sapiens, UniProt P35372); assay: Radioligand binding, human μ-opioid (MOP) membranes, FlashPlate, [3H]-Naloxone; conditions: compound at 10 μM; [3H]-Naloxone
T7 construct: purchased Perkin Elmer Biosignal
Procedure, shortened: as §1

Human neurokinin (NK1) = biological target: T8, Human neurokinin (NK1) (Homo sapiens, UniProt P25103); assay: Radioligand binding, human neurokinin NK1 membranes, filtration, [125I]-Substance P; conditions: compound at 10 μM; [125I]-Substance P
T8 construct: purchased Perkin Elmer Biosignal
Procedure, shortened: as §2

[2] = biological target: T9, Human neuropeptide Y (NPY-Y1) (Homo sapiens, UniProt P25929); assay: Radioligand binding, human neuropeptide Y NPY-Y1 membranes, FlashPlate, [125I]-PYY; conditions: compound at 10 μM; [125I]-PYY
T9 construct: purchased Perkin Elmer Biosignal
T9 sequence (P25929 1-384): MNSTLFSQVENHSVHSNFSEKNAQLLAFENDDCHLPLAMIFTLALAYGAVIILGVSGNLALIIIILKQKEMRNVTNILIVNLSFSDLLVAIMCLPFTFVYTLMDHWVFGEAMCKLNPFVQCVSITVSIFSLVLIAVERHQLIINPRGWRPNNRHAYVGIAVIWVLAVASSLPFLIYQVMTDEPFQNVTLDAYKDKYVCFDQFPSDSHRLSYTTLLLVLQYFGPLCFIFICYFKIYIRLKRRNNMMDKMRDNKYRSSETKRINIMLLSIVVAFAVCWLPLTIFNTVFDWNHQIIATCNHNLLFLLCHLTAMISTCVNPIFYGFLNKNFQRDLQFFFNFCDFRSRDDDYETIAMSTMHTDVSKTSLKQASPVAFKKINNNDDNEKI
Procedure, shortened: as §1

Human opioid (ORL1) = biological target: T10, Human opioid (ORL1) (Homo sapiens, UniProt P41146); assay: Radioligand binding, human opioid ORL1 membranes, FlashPlate, [125I]-Nociceptin; conditions: compound at 10 μM; [125I]-Nociceptin
T10 construct: purchased Perkin Elmer Biosignal
Procedure, shortened: as §1

Mouse urotensin (mUR2) = biological target: T11, Mouse urotensin (mUR2) (Mus musculus, UniProt Q8VIH9); assay: Radioligand binding, mouse urotensin mUR2 membranes, FlashPlate, [125I]-Urotensin II; conditions: compound at 10 μM; [125I]-Urotensin II
T11 construct: purchased Perkin Elmer Biosignal
T11 sequence (Q8VIH9 1-385): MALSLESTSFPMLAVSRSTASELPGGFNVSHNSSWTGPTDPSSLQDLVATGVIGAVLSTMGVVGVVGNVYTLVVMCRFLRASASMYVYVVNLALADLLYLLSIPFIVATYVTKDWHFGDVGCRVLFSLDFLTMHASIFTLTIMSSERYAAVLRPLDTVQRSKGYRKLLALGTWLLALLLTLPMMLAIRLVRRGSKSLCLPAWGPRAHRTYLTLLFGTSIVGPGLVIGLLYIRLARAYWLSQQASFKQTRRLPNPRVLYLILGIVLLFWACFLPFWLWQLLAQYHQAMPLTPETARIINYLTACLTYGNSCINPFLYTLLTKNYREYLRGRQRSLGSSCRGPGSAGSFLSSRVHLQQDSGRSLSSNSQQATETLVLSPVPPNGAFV
Procedure, shortened: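 Cloned mouse urotensin (mUR2) receptor membranes from Perkin Elmer Biosignal were immobilized in FlashPlate microplates using a proprietary coating. Each well got 19.5 μl buffer, then 0.5 μl of DMSO, reference ligand, or compound. Adding 5 μl of [125I]-Urotensin II, diluted to 5× final concentration in binding buffer, started binding. Plates were sealed with TopSeal-A and incubated 1 hour at room temperature in the dark. Wells were counted for 30 seconds each on a TopCount after a 60-second delay, and percentage inhibition was calculated.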

T1 sequence (P41143 whole entry): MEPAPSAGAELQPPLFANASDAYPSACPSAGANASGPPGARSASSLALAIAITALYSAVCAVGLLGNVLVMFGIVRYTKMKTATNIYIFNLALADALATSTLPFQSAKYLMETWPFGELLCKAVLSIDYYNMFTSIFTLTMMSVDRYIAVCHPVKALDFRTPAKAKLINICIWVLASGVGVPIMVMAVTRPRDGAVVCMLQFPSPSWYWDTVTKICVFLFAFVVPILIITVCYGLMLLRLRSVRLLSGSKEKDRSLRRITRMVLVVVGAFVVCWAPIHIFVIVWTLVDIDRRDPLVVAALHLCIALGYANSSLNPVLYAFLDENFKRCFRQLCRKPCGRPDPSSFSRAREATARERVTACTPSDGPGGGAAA
T5 sequence (P33032 whole entry): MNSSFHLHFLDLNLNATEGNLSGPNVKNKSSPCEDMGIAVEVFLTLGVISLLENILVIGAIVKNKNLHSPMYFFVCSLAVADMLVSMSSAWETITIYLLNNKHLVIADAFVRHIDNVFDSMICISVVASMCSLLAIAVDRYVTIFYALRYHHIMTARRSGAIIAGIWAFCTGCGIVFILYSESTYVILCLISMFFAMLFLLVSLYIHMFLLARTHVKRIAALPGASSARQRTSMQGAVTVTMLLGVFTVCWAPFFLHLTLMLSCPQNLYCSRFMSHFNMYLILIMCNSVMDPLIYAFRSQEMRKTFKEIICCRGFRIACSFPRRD
T8 sequence (P25103 whole entry): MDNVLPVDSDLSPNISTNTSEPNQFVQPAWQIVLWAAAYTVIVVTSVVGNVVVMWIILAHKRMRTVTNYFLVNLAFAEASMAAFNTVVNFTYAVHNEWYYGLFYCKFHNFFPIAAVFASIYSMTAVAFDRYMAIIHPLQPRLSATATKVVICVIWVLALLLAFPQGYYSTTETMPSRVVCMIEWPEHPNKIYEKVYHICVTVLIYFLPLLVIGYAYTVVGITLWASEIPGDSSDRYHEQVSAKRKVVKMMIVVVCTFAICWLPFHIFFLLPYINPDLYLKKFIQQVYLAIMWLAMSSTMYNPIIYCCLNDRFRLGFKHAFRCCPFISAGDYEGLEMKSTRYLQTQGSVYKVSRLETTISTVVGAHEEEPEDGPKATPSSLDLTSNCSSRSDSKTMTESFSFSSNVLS
T10 sequence (P41146 whole entry): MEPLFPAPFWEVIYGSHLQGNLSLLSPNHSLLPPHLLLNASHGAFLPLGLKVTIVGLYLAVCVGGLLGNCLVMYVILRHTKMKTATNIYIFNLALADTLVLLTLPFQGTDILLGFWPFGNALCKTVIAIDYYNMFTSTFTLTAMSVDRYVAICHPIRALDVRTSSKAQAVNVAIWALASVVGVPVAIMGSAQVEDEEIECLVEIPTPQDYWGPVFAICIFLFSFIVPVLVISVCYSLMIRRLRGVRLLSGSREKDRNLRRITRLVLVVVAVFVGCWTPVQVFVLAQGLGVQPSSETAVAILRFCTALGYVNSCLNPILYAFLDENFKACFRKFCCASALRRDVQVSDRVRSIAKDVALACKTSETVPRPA
T2 sequence (P41145 whole entry): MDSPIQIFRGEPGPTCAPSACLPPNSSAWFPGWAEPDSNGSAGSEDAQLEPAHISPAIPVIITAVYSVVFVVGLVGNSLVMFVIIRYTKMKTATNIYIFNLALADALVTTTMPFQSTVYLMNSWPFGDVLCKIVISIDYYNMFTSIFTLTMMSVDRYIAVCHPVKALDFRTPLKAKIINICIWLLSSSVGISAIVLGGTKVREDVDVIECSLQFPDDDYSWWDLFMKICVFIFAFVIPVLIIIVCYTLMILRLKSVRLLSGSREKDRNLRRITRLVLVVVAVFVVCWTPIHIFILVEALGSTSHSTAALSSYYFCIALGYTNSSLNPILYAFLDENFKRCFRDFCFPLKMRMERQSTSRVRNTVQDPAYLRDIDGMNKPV
T6 sequence (Q99705 whole entry): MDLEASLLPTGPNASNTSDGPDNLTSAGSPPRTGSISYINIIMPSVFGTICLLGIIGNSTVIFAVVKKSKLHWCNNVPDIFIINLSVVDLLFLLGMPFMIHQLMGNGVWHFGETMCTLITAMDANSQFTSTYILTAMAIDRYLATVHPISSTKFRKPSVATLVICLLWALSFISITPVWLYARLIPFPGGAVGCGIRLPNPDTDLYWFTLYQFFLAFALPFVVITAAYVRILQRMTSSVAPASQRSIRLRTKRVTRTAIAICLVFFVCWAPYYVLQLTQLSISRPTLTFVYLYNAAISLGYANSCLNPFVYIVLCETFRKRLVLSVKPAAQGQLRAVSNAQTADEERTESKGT
T3 sequence (P41968 whole entry): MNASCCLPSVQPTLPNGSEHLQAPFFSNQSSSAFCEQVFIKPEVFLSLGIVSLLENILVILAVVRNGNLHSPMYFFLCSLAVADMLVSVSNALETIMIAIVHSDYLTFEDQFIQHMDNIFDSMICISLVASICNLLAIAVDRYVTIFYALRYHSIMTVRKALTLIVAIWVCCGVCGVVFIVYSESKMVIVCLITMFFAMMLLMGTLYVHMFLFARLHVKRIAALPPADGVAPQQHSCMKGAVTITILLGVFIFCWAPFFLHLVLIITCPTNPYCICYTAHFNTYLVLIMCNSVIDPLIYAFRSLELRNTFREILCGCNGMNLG
T7 sequence (P35372 whole entry): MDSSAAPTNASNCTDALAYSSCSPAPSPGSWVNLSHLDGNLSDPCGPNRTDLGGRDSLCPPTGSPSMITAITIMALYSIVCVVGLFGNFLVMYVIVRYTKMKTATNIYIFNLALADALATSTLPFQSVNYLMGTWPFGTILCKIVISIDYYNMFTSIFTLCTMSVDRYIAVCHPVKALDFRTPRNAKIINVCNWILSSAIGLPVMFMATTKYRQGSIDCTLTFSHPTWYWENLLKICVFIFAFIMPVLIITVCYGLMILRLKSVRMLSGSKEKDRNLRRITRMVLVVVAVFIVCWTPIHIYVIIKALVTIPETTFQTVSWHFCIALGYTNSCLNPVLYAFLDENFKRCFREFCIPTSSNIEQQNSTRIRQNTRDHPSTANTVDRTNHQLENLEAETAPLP
T4 sequence (P32245 whole entry): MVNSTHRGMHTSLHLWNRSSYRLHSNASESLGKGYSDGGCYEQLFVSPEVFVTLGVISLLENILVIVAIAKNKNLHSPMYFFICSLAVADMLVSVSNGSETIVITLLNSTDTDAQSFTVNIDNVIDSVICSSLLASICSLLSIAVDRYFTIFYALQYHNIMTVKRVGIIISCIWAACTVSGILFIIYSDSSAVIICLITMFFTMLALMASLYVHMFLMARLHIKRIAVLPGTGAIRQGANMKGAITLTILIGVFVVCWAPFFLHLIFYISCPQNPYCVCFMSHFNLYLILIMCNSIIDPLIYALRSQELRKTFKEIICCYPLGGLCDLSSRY

SMILES	A1: inhibition of radioligand binding, human δ-opioid (DOP) (Human δ-opioid (DOP))	A2: inhibition of radioligand binding, human κ-opioid (KOP) (Human κ-Opioid (KOP))	A3: inhibition of radioligand binding, human melanocortin (MC3) (Human Melanocortin (MC3))	A4: inhibition of radioligand binding, human melanocortin (MC4) (Human Melanocortin (MC4))	A5: inhibition of radioligand binding, human melanocortin (MC5) (Human melanocortin (MC5))	A6: inhibition of radioligand binding, human melanin-concentrating hormone (MCH1) [1]	A7: inhibition of radioligand binding, human μ-opioid (MOP) (Human μ-opioid (MOP))	A8: inhibition of radioligand binding, human neurokinin (NK1) (Human neurokinin (NK1))	A9: inhibition of radioligand binding, human neuropeptide Y (NPY-Y1) [2]	A10: inhibition of radioligand binding, human opioid (ORL1) (Human opioid (ORL1))	A11: inhibition of radioligand binding, mouse urotensin (mUR2) (Mouse urotensin (mUR2))
NCCC(=O)NC1C(OCc2ccccc2)OC(COCc2ccc3ccccc3c2)C(O)C1OCc1ccc(Cl)cc1 (stereo not drawn) [compound 364]	− (“−” indicates less than 50% inhibition at 10 μM)	− (“−” indicates less than 50% inhibition at 10 μM)	+ (“+” indicates greater than 50% inhibition at 10 μM)	+ (“+” indicates greater than 50% inhibition at 10 μM)	+ (“+” indicates greater than 50% inhibition at 10 μM)	− (“−” indicates less than 50% inhibition at 10 μM)	− (“−” indicates less than 50% inhibition at 10 μM)	+ (“+” indicates greater than 50% inhibition at 10 μM)	− (“−” indicates less than 50% inhibition at 10 μM)	− (“−” indicates less than 50% inhibition at 10 μM)	− (“−” indicates less than 50% inhibition at 10 μM)
NCCC(=O)NC1C(OCc2ccc(Cl)cc2)OC(COCc2ccc3ccccc3c2)C(O)C1OCc1ccccc1 (single isomer, unassigned) [compound 483]	− (“−” indicates less than 50% inhibition at 10 μM)	− (“−” indicates less than 50% inhibition at 10 μM)	− (“−” indicates less than 50% inhibition at 10 μM)	− (“−” indicates less than 50% inhibition at 10 μM)	+ (“+” indicates greater than 50% inhibition at 10 μM)	− (“−” indicates less than 50% inhibition at 10 μM)	− (“−” indicates less than 50% inhibition at 10 μM)	+ (“+” indicates greater than 50% inhibition at 10 μM)	− (“−” indicates less than 50% inhibition at 10 μM)	− (“−” indicates less than 50% inhibition at 10 μM)	− (“−” indicates less than 50% inhibition at 10 μM)
NCCCC(=O)NC1C(OCc2ccccc2)OC(COCc2ccc(Cl)cc2)C(O)C1OCc1ccc2ccccc2c1 (stereo not drawn) [compound 377]	− (“−” indicates less than 50% inhibition at 10 μM)	− (“−” indicates less than 50% inhibition at 10 μM)	+ (“+” indicates greater than 50% inhibition at 10 μM)	+ (“+” indicates greater than 50% inhibition at 10 μM)	+ (“+” indicates greater than 50% inhibition at 10 μM)	− (“−” indicates less than 50% inhibition at 10 μM)	− (“−” indicates less than 50% inhibition at 10 μM)	+ (“+” indicates greater than 50% inhibition at 10 μM)	− (“−” indicates less than 50% inhibition at 10 μM)	− (“−” indicates less than 50% inhibition at 10 μM)	− (“−” indicates less than 50% inhibition at 10 μM)
